Data taken from patent US20260274853A1, “BIFUNCTIONAL COMPOUNDS CONTAINING PYRIMIDINE DERIVATIVES FOR DEGRADING CYCLIN-DEPENDENT KINASE 2 VIA UBIQUITIN PROTEASOME PATHWAY” (NIKANG THERAPEUTICS, INC., priority 2022, published 2026).

Tests used:
CDK2 [1] = target: T1, CDK2 (Homo sapiens, UniProt P24941); test: CDK2 HTRF assay: cellular endogenous CDK2 level in OVCAR3 cells; type: cell-based; conditions: 24 hours compound treatment; for DC50: read-out: DC50 (half maximal degradation concentration of CDK2)
T1 construct: High-Throughput Measurement of Cellular Endogenous CDK2; endogenous in cells; host or cells: OVCAR3
Description: Effects of compounds on cellular CDK2 level can be monitored by a high-throughput HTRF assay or traditional Western Blot assay.
To determine half maximal degradation concentration (DC50) values of compounds, cellular CDK2 level was measured in 96-well format using HTRF total CDK2 cellular kit (Cat #64CDK2TPEG) from Cisbio.
On Day 1, OVCAR3 cells were seeded into 96-well tissue-culture treated plates at 20,000 cells/well in 200 μL and incubated overnight at 37° C. in CO2 atmosphere. On Day 2 cells were treated with compounds at concentration ranging from 0.3 to 10,000 nM using HP D300 digital dispenser. 24 hours after compound treatment, cell culture media was removed by flicking the plate and tapping the plate against clean paper towel. Immediately 30 μL 1× lysis buffer was supplemented from the kit and the plate was incubated at room temperature on shaker for 30 min. After homogenization by pipetting up and down, 8 μL cell lysate from 96-well cell culture plate was transferred to 384-well small volume white detection plate. 2 μL premixed detection solution was added and the plate was covered with sealer. To prepare the detection solution, d2 conjugated-CDK2 antibody and Eu-cryptate conjugated CDK2 antibody were diluted into detection buffer following manufacturer's instruction. Detection plates were incubated overnight at room temperature and read on ClarioStar (BMG Labtech) in TR-FRET mode (665 nM and 620 nM). The TR-FRET ratio (665 nM/620 nM) was plotted against the compound concentration and normalized to DMSO controls. Half maximal degradation concentration (DC50) values were calculated with a four-parameter logistic fit using GraphPad Prism (version 8; La Jolla, CA).
In the table below, A indicates a DC50 of less than 0.1 μM; B indicates a DC50 of greater than or equal to 0.1 μM but less than 0.5 μM; C indicates a DC50 of greater than or equal to 0.5 μM but less than 1 μM; and D indicates a DC50 of greater than or equal to 1 μM but less than 10 μM.

CDK2 [2] = target: T1, CDK2; test: Inhibition of CDK2: phospho-Rb (S807/811) HTRF measurement in OVCAR3 cells; type: cell-based; conditions: 24 h compound treatment, read-out: pRb (nM), IC50 in pRB(S807/811) assay
Description: Phosphorylation of RB protein at S807/811 were measured using HTRF phospho-RB cellular kits (Cat #64RBS807PEG) from Cisbio.
On Day 1, OVCAR3 (dependent on CDK2) cells were seeded into 96-well tissue-culture treated plates at 20,000 cells/well in 200 μL and incubated overnight at 37° C. in CO2 atmosphere. On Day 2, the cells were treated with test compounds at concentrations from 0.3 to 10,000 nM using HP D300 digital dispenser. Twenty-four hours after compound treatment, cell culture media was removed by flicking the plate and tapping the plate against clean paper towel. Immediately 30 μL 1× lysis buffer was supplemented from the kit and the plate was incubated at room temperature on shaker for 30 min. After homogenization by pipetting up and down, 8 μL cell lysate from 96-well cell culture plate was transferred to 384-well small volume white detection plate. 2 μL premixed detection solution was added and the plate was covered with sealer. To prepare the detection solution, d2 conjugated-phospho-RB antibody and Eu-cryptate conjugated phosphor-RB antibody were diluted into detection buffer following manufacturer's instruction. Detection plates were incubated for 4 h at room temperature and read on ClarioStar (BMG Labtech) in TR-FRET mode (665 nM and 620 nM). The TR-FRET ratio (665 nM/620 nM) was plotted against the compound concentration and normalized to DMSO controls. Half maximal inhibition concentration (IC50) values are calculated with a four-parameter logistic fit using GraphPad Prism (version 8; La Jolla, CA).
In the table below, A indicates a IC50 of less than 0.1 μM; B indicates a IC50 of greater than or equal to 0.1 μM but less than 0.5 μM; C indicates a IC50 of greater than or equal to 0.5 μM but less than 1 μM; and D indicates a […] of greater than or equal to 1 μM but less than 10 μM.

Row | DC50 (CDK2 [1]) [nM] | IC50 (CDK2 [2]) [nM] | DC50 (half maximal degradation concentration of CDK2) (CDK2 [1]) | SMILES
1 | < 100 | < 100 | – | Cn1nc(N2CCC(=O)NC2=O)c2ccc(C3CCN(Cc4cccc(S(=O)(=O)N5CC[C@H](Nc6ncc(C(F)(F)F)c(-c7cnn(CC(F)(F)F)c7)n6)[C@H](F)C5)c4)CC3)cc21 (racemic) [Example 6, Rac-1-(6-(1-(3-(((3R,4S)-3-fluoro-4-((4-(1-(2,2,2-trifluoroethyl)-1H-pyrazol-4-yl)-5-(trifluoromethyl)-pyrimidin-2-yl)amino)piperidin-1-yl)sulfonyl)-benzyl)piperidin-4-yl)-1-methyl-1H-indazol-3-yl)dihydro-pyrimidine-2,4(1H,3H)-dione]
2 | < 100 | < 100 | – | O=C1CCC(c2ccc(N3CCN(Cc4cccc(S(=O)(=O)N5CCC(Nc6ncc(C(F)(F)F)c(-c7cnn(CC(F)(F)F)c7)n6)[C@H](F)C5)c4)CC3)cc2)C(=O)N1 (mixture of isomers) [Example 19, Rac-3-(4-(4-(3-(((3R,4S)-3-fluoro-4-((4-(1-(2,2,2-trifluoroethyl)-1H-pyrazol-4-yl)-5-(trifluoromethyl)pyrimidin-2-yl)-amino)piperidin-1-yl)sulfonyl)benzyl)-piperazin-1-yl)-phenyl)piperidine-2,6-dione]
3 | < 100 | 100 to 500 | – | O=C1CCN(c2ccc(N3CCN(Cc4cccc(S(=O)(=O)N5CC[C@@H](Nc6ncc(C(F)(F)F)c(-c7cnn(CC(F)(F)F)c7)n6)[C@@H](F)C5)c4)CC3)cc2)C(=O)N1 (racemic) [Example 28, Rac-1-(4-(4-(3-(((3R,4S)-3-fluoro-4-((4-(1-(2,2,2-trifluoroethyl)-1H-pyrazol-4-yl)-5-(trifluoromethyl)-pyrimidin-2-yl)amino)piperidin-1-yl)sulfonyl)-benzyl)piperazin-1-yl)phenyl)dihydro-pyrimidine-2,4(1H,3H)-dione]
4 | < 100 | < 100 | – | O=C1CCC(c2ccc(N3CCN(Cc4cccc(S(=O)(=O)N5CCC(Nc6ncc(C(F)(F)F)c(-c7cnn(CC(F)(F)F)c7)n6)[C@H](F)C5)c4)CC3)c(F)c2)C(=O)N1 (mixture of isomers) [Example 29, Rac-3-(3-fluoro-4-(4-(3-(((3R,4S)-3-fluoro-4-((4-(1-(2,2,2-trifluoroethyl)-1H-pyrazol-4-yl)-5-(trifluoromethyl)-pyrimidin-2-yl)amino)piperidin-1-yl)-sulfonyl)benzyl)piperazin-1-yl)phenyl)-piperidine-2,6-dione]
5 | 100 to 500 | 1000 to 10000 | – | O=C1CCC(N2C(=O)c3cc(F)c(N4CCN(Cc5cccc(S(=O)(=O)N6CC[C@H](Nc7ncc(C(F)(F)F)c(-c8cnn(CC(F)(F)F)c8)n7)[C@H](F)C6)c5)CC4)cc3C2=O)C(=O)N1 (mixture of isomers) [Example 32, Rac-2-(2,6-dioxopiperidin-3-yl)-5-fluoro-6-(4-(3-(((3R,4S)-3-fluoro-4-((4-(1-(2,2,2-trifluoroethyl)-1H-pyrazol-4-yl)-5-(trifluoromethyl)-pyrimidin-2-yl)amino)piperidin-1-yl)sulfonyl)-benzyl)piperazin-1-yl)-isoindoline-1,3-dione]
6 | < 100 | < 100 | – | Cn1nc(N2CCC(=O)NC2=O)c2ccc(C3CCN(Cc4cccc(S(=O)(=O)N5CC[C@H](Nc6ncc(C(F)(F)F)c(-c7cnn(CC(C)(C)O)c7)n6)[C@H](F)C5)c4)CC3)cc21 (racemic) [Example 70, Rac-1-(6-(1-(3-(((3R,4S)-3-fluoro-4-((4-(1-(2-hydroxy-2-methylpropyl)-1H-pyrazol-4-yl)-5-(trifluoromethyl)-pyrimidin-2-yl)amino)piperidin-1-yl)-sulfonyl)benzyl)piperidin-4-yl)-1-methyl-1H-indazol-3-yl)dihydro-pyrimidine-2,4(1H,3H)-dione]
7 | 100 to 500 | 100 to 500 | – | O=C1CCC(N2C(=O)c3cc(F)c(N4CCN(Cc5cccc(S(=O)(=O)N6CCC(Nc7ncc(C(F)(F)F)c(-c8cnn(CC(F)(F)F)c8)n7)CC6)c5)CC4)cc3C2=O)C(=O)N1 (centres unmarked) [Example 1, 2-(2,6-dioxopiperidin-3-yl)-5-fluoro-6-(4-(3-((4-((4-(1-(2,2,2-trifluoroethyl)-1H-pyrazol-4-yl)-5-(trifluoromethyl)pyrimidin-2-yl)amino)piperidin-1-yl)sulfonyl)benzyl)piperazin-1-yl)isoindoline-1,3-dione]
8 | < 100 | < 100 | – | O=C1CCC(c2ccc(N3CCN(Cc4cccc(S(=O)(=O)N5CCC(Nc6ncc(C(F)(F)F)c(-c7cnn(CC(F)(F)F)c7)n6)CC5)c4)CC3)cc2)C(=O)N1 (centres unmarked) [Example 2, 3-(4-(4-(3-((4-((4-(1-(2,2,2-trifluoro-ethyl)-1H-pyrazol-4-yl)-5-(trifluoro-methyl)pyrimidin-2-yl)amino)piperidin-1-yl)sulfonyl)benzyl)piperazin-1-yl)-phenyl)piperidine-2,6-dione]
9 | < 100 | < 100 | – | O=C1CCC(N2Cc3cc(C4CN(Cc5cccc(S(=O)(=O)N6CCC(Nc7ncc(C(F)(F)F)c(-c8cnn(CC(F)(F)F)c8)n7)CC6)c5)C4)ccc3C2=O)C(=O)N1 (centres unmarked) [Example 3, 3-(1-oxo-5-(1-(3-((4-((4-(1-(2,2,2-trifluoroethyl)-1H-pyrazol-4-yl)-5-(trifluoromethyl)pyrimidin-2-yl)-amino)-piperidin-1-yl)sulfonyl)-benzyl)azetidin-3-yl)isoindolin-2-yl)piperidine-2,6-dione]
10 | < 100 | < 100 | – | Cn1nc(N2CCC(=O)NC2=O)c2ccc(C3CCN(Cc4cccc(S(=O)(=O)N5CCC(Nc6ncc(C(F)(F)F)c(-c7cnn(CC(F)(F)F)c7)n6)CC5)c4)CC3)cc21 [Example 4, 1-(1-methyl-6-(1-(3-((4-((4-(1-(2,2,2-trifluoroethyl)-1H-pyrazol-4-yl)-5-(trifluoromethyl)pyrimidin-2-yl)amino)-piperidin-1-yl)sulfonyl)-benzyl)-piperidin-4-yl)-1H-indazol-3-yl)dihydro-pyrimidine-2,4(1H,3H)-dione]
11 | 100 to 500 | < 100 | – | Cn1cc(-c2nc(NC3CCN(S(=O)(=O)c4cccc(CN5CCN(c6cc7c(cc6F)C(=O)N(C6CCC(=O)NC6=O)C7=O)CC5)c4)CC3)ncc2C(F)(F)F)cn1 (centres unmarked) [Example 5, 2-(2,6-dioxopiperidin-3-yl)-5-fluoro-6-(4-(3-((4-((4-(1-methyl-1H-pyrazol-4-yl)-5-(trifluoromethyl)pyrimidin-2-yl)-amino)piperidin-1-yl)sulfonyl)-benzyl)-piperazin-1-yl)isoindoline-1,3-dione]
12 | < 100 | < 100 | – | Cn1c(=O)n(C2CCC(=O)NC2=O)c2cccc(C3CCN(Cc4cccc(S(=O)(=O)N5CCC(Nc6ncc(C(F)(F)F)c(-c7cnn(CC(F)(F)F)c7)n6)CC5)c4)CC3)c21 (centres unmarked) [Example 8, 3-(3-methyl-2-oxo-4-(1-(3-((4-((4-(1-(2,2,2-trifluoroethyl)-1H-pyrazol-4-yl)-5-(trifluoromethyl)pyrimidin-2-yl)amino)-piperidin-1-yl)sulfonyl)-benzyl)-piperidin-4-yl)-2,3-dihydro-1H-benzo[d]-imidazol-1-yl)piperidine-2,6-dione]
13 | – | 1000 to 10000 | no curve | O=C1CCC(N2C(=O)c3cc(F)c(N4CCN(Cc5cccc(S(=O)(=O)N6CCC(Nc7ncc(Cl)c(-c8cnn(CC(F)(F)F)c8)n7)CC6)c5)CC4)cc3C2=O)C(=O)N1 (centres unmarked) [Example 9, 5-(4-(3-((4-((5-chloro-4-(1-(2,2,2-trifluoroethyl)-1H-pyrazol-4-yl)-pyrimidin-2-yl)amino)piperidin-1-yl)-sulfonyl)benzyl)piperazin-1-yl)-2-(2,6-dioxopiperidin-3-yl)-6-fluoro-isoindoline-1,3-dione]
